Experimental data published in patent EP3697380B1, “ORAL CARE PREPARATIONS COMPRISING CHLORHEXIDINE AND ARGININE OR THEIR SALTS” (priority 2019, dated 2020).

Experiment: Stability of chlorhexidine in simplified formulations by HPLC-UV after storage at 60°C
Assay type: physicochemical
Conditions: result in words; formulations with arginine versus without, 60°C for 42 days
Experimental: The following simplified formulations were used for these studies: […]
The stability of the formulations was measured by HPLC-UV after storage at 60°C for 42 days. The formulations were stored in PET bottles with PP caps.
Compositions 1-4 include arginine as a stabilising agent. […] In particular, compositions 1-4 and compositions 5-7 differ only in the presence or absence of arginine.

N=C(N)NCCCC(N)C(=O)O (stereo not shown) [arginine, 2-amino-5-guanidinopentanoic acid]
stability of the chlorhexidine: improved the stability
